In patent US9539223B2, “Methods for treating bacterial infections” (Neoculi Pty Ltd., priority 2013, dated 2017):
In brackets after ≈: the same amount, converted by molar mass. Several values for one entry are separate records, joined by “and”; a condition that tells them apart may be missing. Identical values can stand only once.

Tests used:
E. faecalis USA01 = assay: Kill kinetics assay, E. faecalis USA01; format: cell-based, Enterococcus faecalis
Protocol: (§1) S. aureus KC01 and E. faecalis USA01, not determined to be MRSA or VRE, respectively, were grown overnight on Columbia SBA at 37° C. A few colonies of bacteria were then suspended in CAMHB (cation-adjusted Mueller Hinton broth) and adjusted to OD600 of 0.08 to 0.10. The bacterial suspension was diluted 1:10. […] The tubes were incubated at 37° C., with constant shaking. In order to determine the number of viable bacteria present at various time points, a 100 μL aliquot was removed from each tube and diluted. Then, 100 μL of each dilution were spread onto colony count agar, in duplicate, and incubated for 48 h at 37° C. After 24 h the numbers of colonies present on each plate were counted and therefore the number of viable bacteria present in the original suspension enumerated. Plates were re-checked after 48 hours.

[1] = Visual analysis of solubility in diluents and media; format: physicochemical
[2] = tested on: vancomycin-resistant Enterococcus spp. (VRE); assay: Minimum inhibitory concentration assay (CLSI), VRE isolates; format: cell-based
Protocol: Minimum inhibitory concentration tests were performed according to CLSI Standards (CLSI 2008). […] The solutions were then serially diluted across the row, leaving 2 columns for positive and negative controls. A bacterial suspension was prepared by adding fresh colonies obtained from an overnight culture on Sheep Blood Agar (SBA) to a 9.1 g/L saline solution. This suspension was adjusted to a concentration of between 4×10^8 and 5×10^8 CFU/mL. Concentration of the suspension was determined by measuring optical density (OD) using a spectrophotometer at a wavelength of 600 nm where the correct concentration was determined to have an optical density of between 1.00 and 1.20. One milliliter of this suspension was added to 9 mL of saline before being added to all wells, excluding the negative control wells, in 10 μL volumes giving a final concentration of between 4×10^5 and 5×10^5 CFU/mL in each well. The tests were then incubated for 24 hours at 37° C. and then assessed both visually and using OD readings from a microplate reader at a wavelength of 600 nm. These tests were performed in duplicate but repeated if discrepancies were observed.
The minimum inhibitory concentration (MIC) was determined to be the lowest concentration of antibiotic that prevented growth of bacteria both visually and using OD readings. […]

[3] = tested on: E. coli ATCC 25922 spheroplasts; assay: Activity against spheroplasts (colony forming units over 24 hours); format: cell-based, Escherichia coli
Protocol: E. coli ATCC 25922 was grown overnight on agar at 37° C. Two colonies from the overnight incubation were used to inoculate ˜20 ml of cation adjusted mueller hinton broth. Inoculated broth was incubated for 18 hours at 37° C. […] Formation of spheroplasts was checked using a phase contrast microscope.
Fifty microliters of DMSO only was added to the control test tube. Spheroplasts were incubated for 24 hours with 20 μl samples taken at 0, 2, 4, 6, 8 and 24 hours. Twenty microliter samples were serially diluted 1:10 and 10 ul samples of appropriate dilutions were spotted in triplicate onto brain heart infusion agar. Brain heart infusion agar was incubated at 37° C. for 48 hours and colonies were counted at 24 and 48 hours to determine the number of colony forming units.

[4] = tested on: methicillin-resistant and methicillin-susceptible Staphylococcus aureus; assay: Minimum bactericidal concentration, S. aureus clinical isolates
Description: The MBC was defined as the lowest drug concentration at which 99.95% of the original inoculum was eliminated.

S. pneumoniae strain D39 = assay: Macro-broth dilution time kill studies; format: cell-based, Streptococcus pneumoniae
Protocol: Bacterial suspensions and working antibiotic stocks were prepared as described above. [For preparing macro-broth dilutions, 20 ml tubes were filled each with 9 mls of 4% LHB:CAMHB. 9 mls of a working antimicrobial stock was diluted 1:2 when added to one of the tubes, and then serial diluted down from a high to low concentration of antimicrobial. 1 ml of S. pneumoniae bacterial suspension was added to the appropriate tubes, including the positive control. […] At every 2-3 hrs during the first 12 hrs of growth and then at 24 hrs and 48 hrs, 50 μL of each bacterial suspension was spread plated onto HBA and incubated at 37° C. with 5% CO2 for 16-24 hrs.]
Cultures were incubated at 37° C. in 5% CO2 with gentle manual tilting every 10 mins for the first 12 hrs. Viable counts from 50 μL aliquots of each concentration were read following incubation at 37° C. in 5% CO2 for 24 hrs. The pH of each sample was measured at specific time points using pH indicator strips. Confluent growth was defined when more than 1000 colonies were counted per plate. A bactericidal effect was defined as a 3-log 10-unit reduction (99.9%) of the original cell suspension determined at 24 hrs for each concentration.

[5] = tested on: Staphylococcus pseudintermedius; assay: MIC testing (CLSI), S. pseudintermedius isolates; format: cell-based
S. aureus KC01 = assay: Kill kinetics assay, S. aureus KC01; format: cell-based, Staphylococcus aureus
Protocol: as §1

[6] = tested on: Staphylococcus spp. Strain MK1; assay: Checkerboard synergy study, Staphylococcus spp. MK1; format: cell-based
Protocol: Firstly, the MIC of each antibiotic alone was determined in accordance to CLSI standard guidelines.
According to the checkerboard guidelines, Synergy (S) was defined as an FICI<0.5. No effect (NE) was defined as 0.5<FICI<4. Antagonism (A) was defined as a 4<FICI.

N=C(N/N=C/c1ccc(Cl)cc1)N/N=C/c1ccc(Cl)cc1 [NCL812, 1,2-bis[(E)-(4-chlorophenyl)methylideneamino]guanidine]
rise in bacterial numbers (E. faecalis USA01; 32 and 64 μg/mL, until the 6 h time point): ~1 log10
reduction in CFU/mL compared to the growth control (E. faecalis USA01; 2 h): 2 log10
reduction in CFU/mL compared to the original bacterial numbers (E. faecalis USA01; 2 h): greater than 1 log10
bacterial numbers compared to the growth control (E. faecalis USA01; 24 h, all concentrations): increased to almost the same level as the growth control
solubility ([1]; DMSO): soluble
appearance when dissolved ([1]; cation-adjusted Mueller-Hinton II broth (CAMHB)): cloudy solution
visual solubility ([1]; diluent CAMHB): Turbid
visual solubility ([1]; diluent DMSO): Transparent
visual solubility ([1]; diluent PBS): Precipitate
visual solubility ([1]; media 4% LHB:CAMHB): Turbid
visual solubility ([1]; media 10% horse serum-supplemented broth): Precipitate
MIC50 [2]: 4 mg/L (≈ 12 µM)
MIC90 [2]: 4 mg/L (≈ 12 µM)
concentration with significant decrease in colony forming units over time [3]: ≥ 32 µg/mL
MBC range [4]: 4 to 16 mg/L
isolates with MBC equivalent to the MIC [4]: 83.33%
growth (S. pneumoniae strain D39; 2 μg/ml NCL812): Consistent confluent growth
appeared to be inactivated at (S. pneumoniae strain D39; 4 μg/ml and 8 μg/ml, post-exposure): 11 h
time to eliminating bacterial growth (S. pneumoniae strain D39; between 16 μg/ml and 64 μg/ml NCL812): ≤ 8 h
MIC50 ([5]; Staphylococcus pseudintermedius, 23 S. pseudintermedius isolates): 2 mg/L (≈ 5.98 µM)
susceptibility based on MICs ([5]; all 23 isolates (MSSP and MRSP)): susceptible
reduction in bacterial numbers from initial numbers (S. aureus KC01; 2 h time point): ≥ 2.5 log10
reduction in bacterial numbers in comparison to the control (S. aureus KC01; 2 h time point): > 3 log10
reduction in bacterial numbers (S. aureus KC01; 6 h incubation): ≥ 2 log10
numbers of bacteria compared to the control (S. aureus KC01; after 24 h): not significantly different to the control
MIC ([6]; read-out: NCL812 MIC Alone, Staphylococcus spp. Strain MK1): 2 mg/L
NCL812 MIC With Antibiotic ([6]; with Penicillin G): 2 mg/L
NCL812 MIC With Antibiotic ([6]; with Sulfamethoxazole): 1 mg/L and 2 mg/L
